Literature values as cited in patent publication US20060018842A1, “Composition and method for delivery of phytochemicals” (priority 2004, published 2006).
Entries after “also recorded” stand apart in the source; their conditions may differ. Read-outs that look alike come from different tables or passages of the source.

Experiments:
[1] = tested on: microorganisms named in the source
[2] = tested on: oral cancer
[3] = tested on: oral carcinoma cell line (KB)
[4] = tested on: mouse skin
[5] = tested on: oral squamous cell carcinoma (OSCC) cells
[6] = tested on: human breast cancer xenografts; settings: mice
[7] = tested on: oral cancer cell line KB-1
[8] = tested on: breast cancer cell line MCF7
[9] = tested on: normal human epidermal keratinocytes
[10] = tested on: normal cell
[11] = tested on: transformed cells; settings: by activating apoptosis
[12] = tested on: oral squamous carcinoma cells
[13] = organisms against which activity was observed, General = general antimicrobial

| Molecule | Activity [1, 13] | further results |
| --- | --- | --- |
| C=CCSSC=CC[S+]([O-])CC=C (mixture of isomers) [ajoene] | General | – |
| C=CCS[S+]([O-])CC=C (stereo not drawn) [Allicin] | Bacteria, Candida; also recorded: General | – |
| CC1(C)C=Cc2c(cc3occ(-c4ccc(O)cc4)c(=O)c3c2O)O1 [Alpinumisoflavone] | Schiatosome | – |
| COc1ccc2cc3[n+](cc2c1OC)CCc1cc2c(cc1-3)OCO2 [Berberine] | Plasmodium; also recorded: Trypansomea, general; also recorded: Bacteria, protozoa; also recorded: Bacteria, Giardia duodenals,; also recorded: trypanosomes; also recorded: Platmodia | – |
| O=C(/C=C/c1ccc(O)c(O)c1)O[C@@H]1C[C@](O)(C(=O)O)C[C@@H](O)[C@H]1O [CGA, chlorogenic acid] | – | Apoptosis [2]: induced caspase-3-dependent apoptosis |
| COc1cc(CNC(=O)CCCC/C=C/C(C)C)ccc1O [Capesicin] | – | Activity [1]: Bacteria |
| Cc1ccc(C(C)C)cc1O [Carvacrol] | General | – |
| COc1cc2c(c(OC)c1OC)-c1ccc(OC)c(=O)cc1[C@@H](NC(C)=O)CC2 [Colchicines, reference compound] | General | – |
| C=CCc1ccc(O)c(OC)c1 [Eugonol] | General | – |
| O=C(CO)[C@@H](O)[C@H](O)[C@H](O)CO [Fructose] | E. coli; also recorded: Bacteria | – |
| O=C(O)c1cc(O)c(O)c(O)c1 [Gallic acid] | S. aureus | – |
| CC(C)=CCc1cc([C@@H]2CC(=O)c3ccc(O)c(CC=C(C)C)c3O2)ccc1O [Glabrol] | S. aureus, M. tuberculosis | – |
| O=C1C=C(O)C(=O)c2ccccc21 [Lawsone] | M. tuberculosis | – |
| CC(C)=CCC1=C(O)C(C(=O)CC(C)C)=C(O)C(CC=C(C)C)(CC=C(C)C)C1=O [Lupulone] | General | – |
| COc1cc(CCN)cc(OC)c1OC [Mascaline] | General | – |
| CC1CCC(C(C)C)C(O)C1 (stereo not drawn) [Menthol, reference compound] | General | – |
| CC(Cc1ccc(O)c(O)c1)C(C)Cc1ccc(O)c(O)c1 (stereo not drawn) [Nordihydrogual-aretic acid] | Skin bacteria | – |
| CC(C)=CCc1cc(O)c(O)c(CC=C(C)C)c1[C@H]1Oc2c(CC=C(C)C)c(O)cc(O)c2C(=O)[C@@H]1O [Petalostemumol] | Bacteria, fungi | – |
| O=C(CCc1ccc(O)cc1)c1c(O)cc(O)cc1O [Phloretin] | General | – |
| O=C(/C=C/C=C/c1ccc2c(c1)OCO2)N1CCCCC1 [Piperdine] | Fungi, Lactobacillus,; also recorded: Micrococcus, E. coli; also recorded: E. facecalis | – |

| Molecule | Activity [1, 13] | further results |
| --- | --- | --- |
| C=C1C=CC(=O)O1 [Protoanemonia] | General | – |
| C=C[C@H]1CN2CC[C@H]1C[C@H]2[C@H](O)c1ccnc2ccc(OC)cc12 [Quiniae, reference compound] | Plasmodium spp. | – |
| COC(=O)[C@H]1[C@H]2C[C@@H]3c4[nH]c5cc(OC)ccc5c4CCN3C[C@H]2C[C@@H](OC(=O)c2cc(OC)c(OC)c(OC)c2)[C@@H]1OC [Roserpine, reference compound] | General | – |
| C/C(=C\CC[C@H](C)[C@@H]1CC[C@]2(C)C3=CC[C@H]4C(C)(C)C(=O)CC[C@]4(C)[C@H]3CC[C@@]12C)C(=O)O [Terebinthone] | General | – |
| C=C1C(=O)[C@]23C[C@H]1C[C@@H](O)[C@H]2[C@@]1(CCCC(C)(C)[C@H]1C=O)COC3=O [Trichorabdal A] | Helicobacter pylori | – |
| CC1=C(CO)C(=O)O[C@@H]([C@@H](C)[C@H]2CC[C@H]3[C@@H]4C[C@H]5O[C@]56[C@@H](O)C=CC(=O)[C@]6(C)[C@H]4CC[C@]23C)C1 [Withafarin A] | Bacteria, fungi | – |
| CCCCCCCC(=O)CCc1ccc(O)c(OC)c1 [[6]-paradol] | – | Cytotoxicity ([3]; features of caspase-3-mediated apoptosis): dose-dependent cytotoxicity; Viable KB cells, % of untreated control ([3]; incubated for 48 h): less than 50%; Protection from tumor inducing agent [4]: protected mouse skin from a tumor inducing agent |
| COc1ccc2c3c1O[C@H]1C(=O)C=C[C@H]4[C@@H](C2)N(C)CC[C@]314 [codeinone] | – | Selectivity of cytotoxicity ([5]; oral tumor cells): selectively higher in oral tumor cells; Apoptosis ([5]; targets the mitochondria): caspase-3-dependent apoptosis |
| COc1cc(/C=C/C(=O)CC(=O)/C=C/c2ccc(O)c(OC)c2)ccc1O [curcumin] | – | Growth and metastasis of xenografts [6]: reduce the growth and metastasis |
| COc1ccc2c(c1OC)C(=O)O[C@@H]2[C@H]1c2cc3c(cc2CCN1C)OCO3 [hydrastine] | Bacteria, Giardia duodenals,; also recorded: trypanosomes; also recorded: Platmodia | – |
| CC(C)=CCC/C(C)=C/C=C/C(C)=C/C=C/C(C)=C/C=C/C=C(C)/C=C/C=C(C)/C=C/C=C(\C)CCC=C(C)C [lycopene] | – | Induction of connexin 43 ([7]; key protein for gap junction formation): specifically induced; KB-1 cells, % of control cell numbers ([7]; physiological lycopene concentrations): approximately 10%; IGF-1 stimulated proliferation [8]: blocked IGF-1 stimulated proliferation |
| O=C(O)c1ccc(O)cc1O [β-Resorcyclic acid] | Bacteria and viruses | – |
| Anthemic acid | M. tuberculosis, S. typhi-; also recorded: murium, S. aureus,; also recorded: holminths | – |
| Asiatocoside | M. leprae | – |
| Caffaio acids | Viruses, holminths | – |
| Catechin | General; also recorded: Shigella; also recorded: Vibrio; also recorded: S. mutans; also recorded: Viruses | – |
| Helanine | General | – |
| Hexemal | General | – |
| Pebatin | Bacteria | – |
| epigallocatechin-3-gallate [EGCG] | – | Survival [9]: survive; Normal cell growth [10]: not affected; Growth inhibition [11]: induce growth inhibition; Apoptosis [12]: induce apoptosis |
